Assay results: patent US20070243548A1, “Calumenin-directed diagnostics and therapeutics for cancer and chemotherapeutic drug resistance” (priority 2006, published 2007)

What was measured:
[1] = tested on: MCF-7/ADR xenografts; assay: Mammary adenocarcinoma MCF-7/ADR xenografts in nude mice; assay type: in vivo; settings: adenocarcinomas, vs mice treated with control siRNA
Description: In further studies, the efficacy of a calumenin-targeted therapeutic in treating an MDR mammary adenocarcinoma cells (MCF/AR) is assessed. Briefly, male […] nude mice 5 to 7 weeks old, weighing 18 g to 22 g, are used for the MCF-7/ADR xenografts. Mice receive a subcutaneous (s.c.) injection of the cells using 5×10^5 cells/inoculation under the shoulder. When the s.c. tumor is approximately 5.5 mm in size, mice are randomized into treatment groups of 4 including controls and groups receiving taxol or doxorubicin, alone (4 mg/kg), intraperitoneally (i.p.) every 2 days, calumenin siRNA alone (3 μg daily for 16 days), or both taxol and calumenin siRNA (3 μg daily for 16 days for each treatment). […] The animal's weight is measured every 4 days. Tumor growth starting on the first day of treatment is measured and the volume of the xenograft is monitored every 4 days. […] Tumor tissue is excised from the mice and its weight is measured. […]
In further studies, the efficacy of a calumenin-targeted therapeutic in treating a mammary adenocarcinoma cells (MCF-7) is assessed. […] The animal's weight is measured every 4 days. Tumor growth starting on the first day of treatment is measured and the volume of the xenograft is monitored every 4 days. […] Tumor tissue is excised from the mice and its weight is measured. […]

[2] = tested on: hematological tumor cells; assay: Hematological tumors in MHC-matched mice; assay type: in vivo
Description: In order to determine whether targeting calumenin is useful in treating a preexisting cancerous condition, MHC-matched mice, 5 to 7 weeks old, receive a subcutaneous (s.c.) injection of 5×10^5 hematological tumor cells, and tumors are allowed to form. Tumor growth starting on the first day of treatment is measured by palpitation, and the volume of the xenograft is monitored every 4 days. Tumors are allowed to grow to a sufficient size (5.5 mm) for appropriate analysis of the effects of calumenin treatment on tumor sensitivity to chemotherapeutic drugs. Mice are then treated with a calumenin siRNA (3 μg daily for 16 days) designed to decrease the level of expression of calumenin. Control mice receive no treatment, treatment with taxol or doxorubicin alone (4 mg/kg daily) or treatment with control siRNA sequences that are not complementary to murine calumenin mRNA (3 μg daily for 16 days for each treatment) in combination with taxol or doxorubicin (4 mg/kg daily). Taxol and doxorubicin can be obtained commercially from Sigma Corp. (St. Louis, Mo.).
The animal's weight is measured every 4 days. Tumor growth starting on the first day of treatment is measured by palpitation and the volume of the xenograft is monitored every 4 days. The mice are anaesthetized and sacrificed when the mean tumor weight is over 1 g in the control group. Tumor tissue is excised from the mice and its weight is measured. Tumor weights from mice treated with the calumenin siRNA and chemotherapeutic drugs are compared to tumor weights from mice treated with control siRNA and chemotherapeutic drugs. Tumor cell count is determined by trypsinizing tumors in DMEM medium supplemented with 10% fetal bovine serum until cells are in free suspension. Cells are then transferred to 6-well plates for counting. Cell counts are compared. All experiments are performed in triplicate.
In order to determine whether targeting calumenin is useful in treating a preexisting cancerous condition, MHC-matched mice, 5 to 7 weeks old, receive an s.c. injection of 5×10^5 hematological tumor cells, and tumors are allowed to form. Tumor growth starting on the first day of treatment is measured by palpitation and the volume of the xenograft is monitored every 4 days. Tumors are allowed to grow to a sufficient size (5.5 mm) for appropriate analysis of the effects of calumenin treatment on tumor sensitivity to chemotherapeutic drugs. […]
The animal's weight is measured every 4 days. Tumor growth starting on the first day of treatment is measured and the volume of the xenograft is monitored every 4 days. […] Tumor tissue is excised from the mice and its weight is measured. […] Tumor cell count is determined by trypsinizing tumors in DMEM medium supplemented with 10% fetal bovine serum until cells are in free suspension. […]

Calumenin siRNA: siRNA duplex targeting human calumenin mRNA; sense 5′-GAAGGACCGUGUACAUCAU-3′ (SEQ ID NO: 1), anti-sense 5′-AUGAUGUACACGGUCCUUC-3′ (SEQ ID NO: 2), 3′TT overhangs (3' TT overhangs on both strands, further chemistry not given here)
total cell number in tumors [1]: lower | tumors by weight ([1]; 3 μg siRNA daily for 16 days): smaller | prognosis (i.e., smaller tumor or fewer tumor cells) ([2]; composition vs only the targeting agent or only the chemotherapeutic drug): better prognosis | total cell number in tumors ([2]; hematological cancers, vs mice treated with control siRNA): lower | tumors by weight ([2]; hematological cancers, vs mice treated with control siRNA, 3 μg siRNA daily for 16 days): smaller | sensitivity of tumors to chemotherapeutic drug treatment regimes ([2]; hematological tumors in mice): increases
